Assay results taken from patent US10144737B2 (ETERNITY BIOSCIENCE INC., priority 2014, dated 2018).

How the values were obtained:
[1] = target: T1, Btk (Homo sapiens, UniProt Q06187); test: Btk kinase assay (ADP-Glo); type: biochemical; settings: ADP-Glo Btk kinase assay kit; ATP 1.2 μM; 60 minutes at room temperature
T1 construct: purchased Promega (Madison, Wis.)
Experimental: Btk kinase assay—The Btk kinase assay was performed using a ADP-Glo Btk kinase assay kit purchased from Promega (Madison, Wis.). The assay was conducted according to the protocols provided in the assay kit. In brief, the enzyme reaction was carried out in the kinase reaction buffer containing Btk (2 ng/μl), ATP (1.2 μM), poly GT peptide (0.3 μM), DTT (40 nM), MnCl2 (1.4 mM), and 1 xkinase buffer (included in the kit) in the presence or absence of the tested articles at various concentrations in 384-well plate at room temperature (22±1° C.) for 60 minutes. The final reaction volume for each reaction was 10 μl. Then, 4 μl of ADP-Glo reagent (included in the kit) was added into the reaction and the plate was further incubated for another 40 minutes to terminate the reaction and deplete the remaining ATP. Finally, 10 μl of the kinase detection reagent was added into each reaction to simultaneously convert ADP to ATP and allow the newly synthesized ATP to be measured by a plate-reading luminometer (Victor X5 2030 multilabel reader, PerkinElmer). IC50 value was calculated using appropriate programs in GraphPad Prism by plotting the logarithm of the concentration versus percent inhibition as compared with a vehicle (DMSO) control.

[2] = system: TMD-8 cells; test: Cell proliferation assay (CellTiter-Glo), TMD-8 cells; type: cell-based; settings: Homo sapiens, TMD8, 120 h, 5-day treatment, read-out: TMD8 cell growth (GI50 μM)
Experimental: Cell proliferation assay: TMD-8 and SU-DHL-1 cells were maintained at 37° C. in a humidified atmosphere with 5% CO2 in the recommended medium and serum concentrations. For cell proliferation assay, cells were seeded in 96-well pates at a density of 5,000 to 10,000 cells per well and cultured overnight at 37° C. in recommended medium supplemented with 5-10% FBS. On the next day, the test articles at various concentrations or vehicle control (0.5% DMSO) were added into cell culture. After 5-day treatment, the growth of cells was assayed by the CellTiter-Glo® Luminestceaent Cell Viability Assay (Promega). IC50 values were calculated using GraphPad Prism by plotting the logarithm of the concentration versus percent inhibition of cell growth as compared with the vehicle control.

T1 sequence (Q06187 whole entry): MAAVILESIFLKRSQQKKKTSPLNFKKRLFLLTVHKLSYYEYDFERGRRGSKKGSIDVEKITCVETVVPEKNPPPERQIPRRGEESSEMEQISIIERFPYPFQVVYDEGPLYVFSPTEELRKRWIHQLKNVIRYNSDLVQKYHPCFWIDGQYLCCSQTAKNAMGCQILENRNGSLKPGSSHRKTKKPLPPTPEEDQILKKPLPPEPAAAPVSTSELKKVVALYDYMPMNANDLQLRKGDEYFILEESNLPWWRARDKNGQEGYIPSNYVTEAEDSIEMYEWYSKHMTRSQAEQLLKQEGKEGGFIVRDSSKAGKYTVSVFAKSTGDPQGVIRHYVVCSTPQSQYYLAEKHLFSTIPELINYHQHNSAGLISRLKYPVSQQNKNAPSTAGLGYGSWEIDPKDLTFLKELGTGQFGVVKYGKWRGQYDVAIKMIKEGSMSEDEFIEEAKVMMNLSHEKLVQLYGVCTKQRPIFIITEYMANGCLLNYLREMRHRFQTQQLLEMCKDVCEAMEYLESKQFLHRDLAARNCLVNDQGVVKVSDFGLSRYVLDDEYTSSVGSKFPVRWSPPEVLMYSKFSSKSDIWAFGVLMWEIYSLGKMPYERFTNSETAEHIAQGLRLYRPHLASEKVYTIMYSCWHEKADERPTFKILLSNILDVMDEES

IC50 [1] [nM]	Compound	GI50 [2] [µM]
0.4	COc1ccccc1OCC#Cc1nc2c(NC3CCN(C(=O)/C=C/CN(C)C)C3)ncnc2[nH]1 (stereo not shown) [Example 28, (E)-1-(3-((8-(3-(2-methoxyphenoxy)prop-1-yn-1-yl)-9H-purin-6-yl)amino)pyrrolidin-1-yl)-4-(dimethylamino)but-2-en-1-one]	0.082
0.7	COc1cccc(OCC#Cc2nc3c(NC4CCN(C(=O)/C=C/CN(C)C)C4)ncnc3[nH]2)c1 (stereo not shown) [Example 29, (E)-1-(3-((8-(3-(3-methoxyphenoxy)prop-1-yn-1-yl)-9H-purin-6-yl)amino)pyrrolidin-1-yl)-4-(dimethylamino)but-2-en-1-one]	1.21
19	COc1ccc(OCC#Cc2nc3c(NC4CCN(C(=O)/C=C/CN(C)C)C4)ncnc3[nH]2)cc1 (stereo not shown) [Example 30, (E)-1-(3-((8-(3-(4-methoxyphenoxy)prop-1-yn-1-yl)-9H-purin-6-yl)amino)pyrrolidin-1-yl)-4-(dimethylamino)but-2-en-1-one]	1.2
1.6	C=CC(=O)N1CC[C@@H](Nc2ncnc3[nH]c(C#CCOc4ccccc4)nc23)C1 [Example 31, (R)-1-(3-((8-(3-phenoxyprop-1-yn-1-yl)-9H-purin-6-yl)amino)pyrrolidin-1-yl)prop-2-en-1-one]	0.02
7.5	CN(C)C/C=C/C(=O)N1CC[C@@H](Nc2ncnc3[nH]c(C#CCOc4ccccc4)nc23)C1 [Example 32, (R,E)-4-(dimethylamino)-1-(3-((8-(3-phenoxyprop-1-yn-1-yl)-9H-purin-6-yl)amino)pyrrolidin-1-yl)but-2-en-1-one]	0.004
0.3	CN(C)C/C=C/C(=O)N1CCC(Nc2ncnc3[nH]c(C#CCOc4ccccc4)cc23)C1 (stereo not shown) [Example 34, (E)-4-(dimethylamino)-1-(3-((6-(3-phenoxyprop-1-yn-1-yl)-7H-pyrrolo[2,3-d]pyrimidin-4-yl)amino)pyrrolidin-1-yl)but-2-en-1-one]	0.107
0.4	CNC/C=C/C(=O)N1CCC(Nc2ncnc3[nH]c(C#CCOc4ccccc4)cc23)C1 (stereo not shown) [Example 35]	0.95
127	O=C(/C=C/CN1CCOCC1)N1CCC(Nc2ncnc3[nH]c(C#CCOc4ccccc4)cc23)C1 (stereo not shown) [Example 36, (E)-4-morpholino-1-(3-((6-(3-phenoxyprop-1-yn-1-yl)-7H-pyrrolo[2,3-d]pyrimidin-4-yl)amino)pyrrolidin-1-yl)but-2-en-1-one]	0.552
384	C=CC(=O)N1CCC(N(C)c2ncnc3[nH]c(C#CCOc4ccccc4)cc23)C1 (stereo not shown) [Example 38, 1-(3-(methyl(6-(3-phenoxyprop-1-yn-1-yl)-7H-pyrrolo[2,3-d]pyrimidin-4-yl)amino)pyrrolidin-1-yl)prop-2-en-1-one]	0.209
192	CN(C)C/C=C/C(=O)N1CCC(N(C)c2ncnc3[nH]c(C#CCOc4ccccc4)cc23)C1 (stereo not shown) [Example 39, (E)-4-(dimethylamino)-1-(3-(methyl(6-(3-phenoxyprop-1-yn-1-yl)-7H-pyrrolo[2,3-d]pyrimidin-4-yl)amino)pyrrolidin-1-yl)but-2-en-1-one]	0.299
0.3	C=CC(=O)N1CC[C@@H](Nc2ncnc3[nH]c(C#CCOc4ccccc4)cc23)C1 [Example 40, (R)-1-(3-((6-(3-phenoxyprop-1-yn-1-yl)-7H-pyrrolo[2,3-d]pyrimidin-4-yl)amino)pyrrolidin-1-yl)prop-2-en-1-one]	0.004
0.08	CN(C)C/C=C/C(=O)N1CC[C@@H](Nc2ncnc3[nH]c(C#CCOc4ccccc4)cc23)C1 [Example 41, (R,E)-4-(dimethylamino)-1-(3-((6-(3-phenoxyprop-1-yn-1-yl)-7H-pyrrolo[2,3-d]pyrimidin-4-yl)amino)pyrrolidin-1-yl)but-2-en-1-one]	0.069
0.14	C=CC(=O)N1CC[C@@H](Nc2ncnc3[nH]c(C#CCOc4ccccc4Cl)cc23)C1 [Example 43, (R)-1-(3-((6-(3-(2-chlorophenoxy)prop-1-yn-1-yl)-7H-pyrrolo[2,3-d]pyrimidin-4-yl)amino)pyrrolidin-1-yl)prop-2-en-1-one]	0.001
0.11	CN(C)C/C=C/C(=O)N1CC[C@@H](Nc2ncnc3[nH]c(C#CCOc4ccccc4Cl)cc23)C1 [Example 44, (R,E)-1-(3-((6-(3-(2-chlorophenoxy)prop-1-yn-1-yl)-7H-pyrrolo[2,3-d]pyrimidin-4-yl)amino)pyrrolidin-1-yl)-4-(dimethylamino)but-2-en-1-one]	0.012
1.1	C=CC(=O)N1CC[C@@H](Nc2ncnc3[nH]c(C#CCOc4ccccc4OC)cc23)C1 [Example 45, (R)-1-(3-((6-(3-(2-methoxyphenoxy)prop-1-yn-1-yl)-7H-pyrrolo[2,3-d]pyrimidin-4-yl)amino)pyrrolidin-1-yl)prop-2-en-1-one]	0.0014
0.04	COc1ccccc1OCC#Cc1cc2c(N[C@@H]3CCN(C(=O)/C=C/CN(C)C)C3)ncnc2[nH]1 [Example 46, (R,E)-1-(3-((6-(3-(2-methoxyphenoxy)prop-1-yn-1-yl)-7H-pyrrolo[2,3-d]pyrimidin-4-yl)amino)pyrrolidin-1-yl)-4-(dimethylamino)but-2-en-1-one]	0.017
136	CC#CC(=O)N1CC[C@@H](Nc2ncnc3[nH]c(C#CCOc4ccccc4F)cc23)C1 [Example 47, (R)-1-(3-((6-(3-(2-fluorophenoxy)prop-1-yn-1-yl)-7H-pyrrolo[2,3-d]pyrimidin-4-yl)amino)pyrrolidin-1-yl)but-2-yn-1-one]	0.008
432	C/C=C/C(=O)N1CC[C@@H](Nc2ncnc3[nH]c(C#CCOc4ccccc4F)cc23)C1 [Example 48, (R,E)-1-(3-((6-(3-(2-fluorophenoxy)prop-1-yn-1-yl)-7H-pyrrolo[2,3-d]pyrimidin-4-yl)amino)pyrrolidin-1-yl)but-2-en-1-one]	0.088
< 0.03	CN(C)C/C=C/C(=O)N1CC[C@@H](Nc2ncnc3[nH]c(C#CCOc4ccccc4F)cc23)C1 [Example 49, (R,E)-1-(3-((6-(3-(2-fluorophenoxy)prop-1-yn-1-yl)-7H-pyrrolo[2,3-d]pyrimidin-4-yl)amino)pyrrolidin-1-yl)-4-(dimethylamino)but-2-en-1-one]	0.017
11	C=CC(=O)N1CC[C@@H](Nc2ncnc3[nH]c(C#Cc4ccccc4)cc23)C1 [Example 50, (R)-1-(3-((6-(phenylethynyl)-7H-pyrrolo[2,3-d]pyrimidin-4-yl)amino)pyrrolidin-1-yl)prop-2-en-1-one]	0.009
18	C=CC(=O)N1CC[C@@H](Nc2ncnc3[nH]c(C#Cc4ccccc4F)cc23)C1 [Example 51, (R)-1-(3-((6-((2-fluorophenyl)ethynyl)-7H-pyrrolo[2,3-d]pyrimidin-4-yl)amino)pyrrolidin-1-yl)prop-2-en-1-one]	0.016
6	CN(C)C/C=C/C(=O)N1CC[C@@H](Nc2ncnc3[nH]c(C#Cc4ccccc4F)cc23)C1 [Example 52, (R,E)-4-(dimethylamino)-1-(3-((6-((2-fluorophenyl)ethynyl)-7H-pyrrolo[2,3-d]pyrimidin-4-yl)amino)pyrrolidin-1-yl)but-2-en-1-one]	0.187
23	C=CC(=O)N1CC[C@@H](Nc2ncnc3[nH]c(C#Cc4ccc(OC)cc4)cc23)C1 [Example 53, (R)-1-(3-((6-((4-methoxyphenyl)ethynyl)-7H-pyrrolo[2,3-d]pyrimidin-4-yl)amino)pyrrolidin-1-yl)prop-2-en-1-one]	0.006
3.5	CN(C)C/C=C/C(=O)N1CC[C@@H](Nc2ncnc3[nH]c(C#Cc4ccccc4)cc23)C1 [Example 54, (R,E)-4-(dimethylamino)-1-(3-((6-(phenylethynyl)-7H-pyrrolo[2,3-d]pyrimidin-4-yl)amino)pyrrolidin-1-yl)but-2-en-1-one]	0.121
174	C=CC(=O)N1CC[C@@H](Nc2ncnc3[nH]c(C#Cc4ccccc4Cl)cc23)C1 [Example 55, (R)-1-(3-((6-((2-chlorophenyl)ethynyl)-7H-pyrrolo[2,3-d]pyrimidin-4-yl)amino)pyrrolidin-1-yl)prop-2-en-1-one]	0.195
323	CN(C)C/C=C/C(=O)N1CC[C@@H](Nc2ncnc3[nH]c(C#Cc4ccccc4Cl)cc23)C1 [Example 56, (R,E)-1-(3-((6-((2-chlorophenyl)ethynyl)-7H-pyrrolo[2,3-d]pyrimidin-4-yl)amino)pyrrolidin-1-yl)-4-(dimethylamino)but-2-en-1-one]	1
